Reference: patent US11292801B2, “Calpain modulators and therapeutic uses thereof” (Blade Therapeutics, Inc., priority 2016, dated 2022)

Tests used:
[1] = biological target: T1, Human Calpain 1/NS1 (Homo sapiens, UniProt P07384); assay: Biochemical inhibition of calpain 1, continuous fluorescence (FRET substrate) assay; conditions: mean, read-out: Human Calpain 1/NS1 IC50 (nM)_MEAN
T1 sequence (P07384 1-714): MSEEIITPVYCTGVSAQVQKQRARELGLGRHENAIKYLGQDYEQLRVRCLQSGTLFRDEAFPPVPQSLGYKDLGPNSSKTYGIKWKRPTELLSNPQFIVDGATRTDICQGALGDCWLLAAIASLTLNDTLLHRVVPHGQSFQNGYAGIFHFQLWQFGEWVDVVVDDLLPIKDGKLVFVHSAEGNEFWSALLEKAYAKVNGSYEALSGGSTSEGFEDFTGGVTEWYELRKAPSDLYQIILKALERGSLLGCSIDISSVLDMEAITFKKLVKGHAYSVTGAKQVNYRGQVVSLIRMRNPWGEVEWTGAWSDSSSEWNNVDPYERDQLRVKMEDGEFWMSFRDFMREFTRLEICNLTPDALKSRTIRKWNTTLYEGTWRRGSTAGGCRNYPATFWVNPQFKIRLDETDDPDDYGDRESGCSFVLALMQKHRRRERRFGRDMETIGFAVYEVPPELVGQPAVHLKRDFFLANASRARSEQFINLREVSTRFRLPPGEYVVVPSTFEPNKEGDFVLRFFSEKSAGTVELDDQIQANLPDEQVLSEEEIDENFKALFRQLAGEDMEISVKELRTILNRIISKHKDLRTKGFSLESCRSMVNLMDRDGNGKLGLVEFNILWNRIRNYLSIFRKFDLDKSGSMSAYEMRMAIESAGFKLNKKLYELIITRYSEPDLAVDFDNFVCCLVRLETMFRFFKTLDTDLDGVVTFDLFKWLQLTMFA
T1 sequence (P04632 1-268 partner): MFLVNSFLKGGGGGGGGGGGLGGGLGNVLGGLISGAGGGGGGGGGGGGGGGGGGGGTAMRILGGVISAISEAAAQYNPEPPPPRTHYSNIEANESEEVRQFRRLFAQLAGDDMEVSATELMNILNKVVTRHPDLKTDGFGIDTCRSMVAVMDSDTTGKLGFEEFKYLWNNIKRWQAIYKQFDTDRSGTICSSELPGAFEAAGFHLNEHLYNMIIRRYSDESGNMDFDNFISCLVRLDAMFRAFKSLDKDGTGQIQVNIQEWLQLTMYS
Protocol: (§1) Calpain 1, 2, and 9 activity and inhibition thereof are assessed by means of a continuous fluorescence assay. The SensoLyte 520 Calpain substrate (Anaspec Inc) is optimized for detecting calpain activity. This substrate contains a novel internally quenched 5-FAM/QXL™ 520 FRET pair. Calpains 1, 2, and 9 cleave the FRET substrate into two separate fragments resulting in an increase of 5-FAM fluorescence that is proportional to calpain activity.
(§2) Assays are typically setup in black 384-well plates using automated liquid handling as follows. Calpain assay base buffer typically contains 50 mM Tris, pH˜7.5, 100 mM NaCl and 1 mM DTT. Inhibitors are serially diluted in DMSO and used to setup 2× mixtures with calpains in the aforementioned buffer. After incubation at ambient temperature (25C), the reaction is initiated by adding a 2× mix of the fluorescent peptide substrate and CaCl2) (required for in-situ calpain activation) in the same buffer. Reaction progress curve data are typically collected for 10 min using excitation/emission wavelengths of 490 nm/520 nm on SpectraMax i3× or the FLIPR-Tetra plate readers (Molecular Devices Inc). Reaction rates were calculated from progress curve slopes typically over 1-5 min. Dose response curves (rate vs. log inhibitor concentration) were typically fit to a 4-parameter logistic function to extract IC50 values.

[2] = biological target: T2, Human Calpain 2/NS1 (Homo sapiens, UniProt P17655); assay: Biochemical inhibition of calpain 2, continuous fluorescence (FRET substrate) assay; conditions: mean, read-out: Human Calpain 2/NS1 IC50 (nM)_MEAN
T2 sequence (P17655 1-700): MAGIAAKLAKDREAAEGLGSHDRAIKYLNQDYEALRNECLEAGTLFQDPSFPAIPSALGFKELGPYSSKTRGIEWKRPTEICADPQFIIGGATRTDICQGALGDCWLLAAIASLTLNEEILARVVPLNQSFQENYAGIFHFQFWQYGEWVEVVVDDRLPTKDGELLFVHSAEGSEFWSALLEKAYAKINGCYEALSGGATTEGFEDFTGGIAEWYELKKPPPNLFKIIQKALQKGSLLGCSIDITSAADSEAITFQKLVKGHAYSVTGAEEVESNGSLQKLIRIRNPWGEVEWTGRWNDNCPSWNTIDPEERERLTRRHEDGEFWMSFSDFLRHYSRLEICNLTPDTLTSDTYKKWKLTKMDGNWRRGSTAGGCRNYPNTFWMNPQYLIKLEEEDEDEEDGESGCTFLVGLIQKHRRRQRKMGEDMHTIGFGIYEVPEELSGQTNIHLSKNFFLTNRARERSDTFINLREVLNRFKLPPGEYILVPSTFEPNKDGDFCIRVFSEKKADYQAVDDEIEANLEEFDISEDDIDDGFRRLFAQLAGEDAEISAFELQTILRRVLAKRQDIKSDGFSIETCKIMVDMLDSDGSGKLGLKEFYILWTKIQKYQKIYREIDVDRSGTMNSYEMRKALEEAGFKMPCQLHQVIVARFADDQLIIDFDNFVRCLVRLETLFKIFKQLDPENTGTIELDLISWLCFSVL
T2 sequence (P04632 1-268 partner): T1 sequence (P04632 1-268 partner)
Protocol: as §1, §2

[3] = biological target: T3, Human Calpain 9/NS1 (Homo sapiens, UniProt O14815); assay: Biochemical inhibition of calpain 9, continuous fluorescence (FRET substrate) assay; conditions: mean, read-out: Human Calpain 9/NS1 IC50 (nM)_MEAN
T3 sequence (O14815 1-690): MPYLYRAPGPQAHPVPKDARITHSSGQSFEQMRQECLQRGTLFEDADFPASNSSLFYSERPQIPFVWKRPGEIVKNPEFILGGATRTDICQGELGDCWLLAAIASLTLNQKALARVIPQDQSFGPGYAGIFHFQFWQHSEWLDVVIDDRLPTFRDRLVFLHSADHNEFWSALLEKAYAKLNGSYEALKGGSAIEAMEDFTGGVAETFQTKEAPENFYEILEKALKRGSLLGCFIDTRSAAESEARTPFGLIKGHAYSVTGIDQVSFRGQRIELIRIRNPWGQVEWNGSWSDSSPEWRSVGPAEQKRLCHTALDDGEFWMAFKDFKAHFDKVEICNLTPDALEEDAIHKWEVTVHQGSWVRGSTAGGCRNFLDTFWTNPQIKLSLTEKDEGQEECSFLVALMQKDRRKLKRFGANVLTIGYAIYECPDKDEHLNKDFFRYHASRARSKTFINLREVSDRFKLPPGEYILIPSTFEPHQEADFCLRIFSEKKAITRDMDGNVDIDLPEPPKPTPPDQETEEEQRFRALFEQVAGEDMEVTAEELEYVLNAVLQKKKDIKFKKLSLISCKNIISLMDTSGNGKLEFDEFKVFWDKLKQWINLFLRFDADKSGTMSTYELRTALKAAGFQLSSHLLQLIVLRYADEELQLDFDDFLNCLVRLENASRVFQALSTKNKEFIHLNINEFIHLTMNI
T3 sequence (P04632 1-268 partner): T1 sequence (P04632 1-268 partner)
Protocol: as §1, §2

| SMILES | IC50 [1] | IC50 [2] | IC50 [3] |
| --- | --- | --- | --- |
| O=C[C@@H]1CC=CCCCCOc2ccccc2C(=O)N1 (mixture of isomers) [Compound 5, (S)-11-Oxo-2,3,4,5,8,9,10,11-octahydrobenzo[b][1]oxa[5]azacyclotridecine-9-carbaldehyde] | > 10000 nM | 3000 to 10000 nM | < 3000 nM |
| O=C[C@@H]1C/C=C\COCCOCc2ccccc2C(=O)N1 [Compound 1, (S,Z)-12-Oxo-1,3,4,6,9,10,11,12-octahydrobenzo[f][1,4]dioxa[9]azacyclo-tetradecine-10-carbaldehyde] | > 10000 nM | < 3000 nM | < 3000 nM |
| O=C[C@@H]1C/C=C/COCCOCc2ccccc2C(=O)N1 [Compound 2, (S,E)-12-Oxo-1,3,4,6,9,10,11,12-octahydrobenzo[f][1,4]dioxa[9]azacyclotetradecine-10-carbaldehyde] | > 10000 nM | > 10000 nM | 3000 to 10000 nM |
| O=C(NCc1ccccc1)C(=O)[C@@H]1C/C=C\COCCOCc2ccccc2C(=O)N1 [Compound 3, (S,Z)—N-benzyl-2-oxo-2-(12-oxo-1,3,4,6,9,10,11,12-octahydrobenzo[f][1,4]dioxa[9]azacyclotetradecin-10-yl)acetamide] | > 10000 nM | > 10000 nM | < 3000 nM |
| O=C(NCc1ccccc1)C(=O)[C@@H]1C/C=C/COCCOCc2ccccc2C(=O)N1 [Compound 4, (S,E)-N-benzyl-2-oxo-2-(12-oxo-1,3,4,6,9,10,11,12-octahydrobenzo[f][1,4]dioxa[9]azacyclotetradecin-10-yl)acetamide] | > 10000 nM | 3000 to 10000 nM | < 3000 nM |
| O=C[C@@H]1CCCCCCCOc2ccccc2C(=O)N1 [Compound 6, (S)-11-Oxo-2,3,4,5,6,7,8,9,10,11-decahydrobenzo[b][1]oxa[5]azacyclotridecine-9-carbaldehyde] | 3000 to 10000 nM | < 3000 nM | < 3000 nM |
| O=C(NCc1ccccc1)C(=O)[C@@H]1CC=CCCCCOc2ccccc2C(=O)N1 [Compound 7, (S)—N-benzyl-2-oxo-2-(11-oxo-2,3,4,5,8,9,10,11-octahydrobenzo[b][1]oxa[5]azacyclotridecin-9-yl)acetamide] | > 10000 nM | > 10000 nM | 3000 to 10000 nM |
| O=C[C@@H]1CCCCOCCn2ccc3cccc(c32)C(=O)N1 [Compound 8, (S)-11-Oxo-2,3,4,5,8,9,10,11-octahydrobenzo[b][1]oxa[5]azacyclotridecine-9-carbaldehyde] | 3000 to 10000 nM | < 3000 nM | < 3000 nM |
| O=C[C@@H]1CC=CCOCCn2ccc3cccc(c32)C(=O)N1 [Compound 9] | > 10000 nM | < 3000 nM | < 3000 nM |
| O=C[C@@H]1C/C=C/CCCCCCc2ccccc2C(=O)N1 [Compound 10, (S,E)-1-Oxo-1,2,3,4,7,8,9,10,11,12-decahydrobenzo[c][1]aza-cyclotetradecine-3-carbaldehyde] | 3000 to 10000 nM | < 3000 nM | < 3000 nM |
| O=C[C@@H]1CC=CCOCCCOCc2ccccc2C(=O)N1 [Compound 11, (S)-13-Oxo-1,4,5,7,10,11,12,13-octahydro-3h-benzo[g][1,5]dioxa[10]aza-cyclopentadecine-11-carbaldehyde] | 3000 to 10000 nM | < 3000 nM | < 3000 nM |
| O=C[C@@H]1CC=CCOCCCCOCc2ccccc2C(=O)N1 [Compound 12, (S)-14-Oxo-1,3,4,5,6,8,11,12,13,14-decahydrobenzo[h][1,6]dioxa[11]aza-cyclohexadecine-12-carbaldehyde] | < 3000 nM | < 3000 nM | 3000 to 10000 nM |
| O=C[C@@H]1Cc2ccccc2C=CCCCCOc2ccccc2C(=O)N1 [Compound 13, (S)-19-Oxo-6,7,8,9,16,17,18,19-octahydrodibenzo[b,h][1]oxa[5]aza-cyclopentadecine-17-carbaldehyde] | 3000 to 10000 nM | < 3000 nM | 3000 to 10000 nM |
| O=C[C@@H]1CC=CCCCCCc2ccccc2C(=O)N1 [Compound 14, (S)-1-Oxo-2,3,4,7,8,9,10,11-octahydro-1h-benzo[c][1]aza-cyclotridecine-3-carbaldehyde] | 3000 to 10000 nM | < 3000 nM | < 3000 nM |
| O=C[C@@H]1CCCCCCCCc2ccccc2C(=O)N1 [Compound 15, (S)-1-Oxo-2,3,4,5,6,7,8,9,10,11-decahydro-1h-benzo[c][1]aza-cyclotridecine-3-carbaldehyde] | 3000 to 10000 nM | < 3000 nM | < 3000 nM |
| O=C[C@@H]1CCCCCCCCCc2ccccc2C(=O)N1 [Compound 16, (S)-1-Oxo-1,2,3,4,5,6,7,8,9,10,11,12-dodecahydrobenzo[c][1]aza-cyclotetradecine-3-carbaldehyde] | 3000 to 10000 nM | < 3000 nM | < 3000 nM |
| CCNC(=O)C(=O)[C@@H]1C/C=C/CCCCCCc2ccccc2C(=O)N1 [Compound 17, (S,E)-N-ethyl-2-oxo-2-(1-oxo-1,2,3,4,7,8,9,10,11,12-decahydrobenzo[c][1]azacyclotetradecin-3-yl)acetamide] | > 10000 nM | > 10000 nM | > 10000 nM |
| O=C(NC1CCCC1)C(=O)C1CCCCOCCOCc2ccccc2C(=O)N1 (centres unmarked) [Compound 109, N-cyclopentyl-2-oxo-2-(12-oxo-1,3,4,6,7,8,9,10,11,12-decahydrobenzo[f][1,4]dioxa[9]azacyclotetradecin-10-yl)acetamide] | > 10000 nM | > 10000 nM |  |
